US20190031599A1, “INDANE DERIVATIVES AS MGLUR7 MODULATORS” (Takeda Pharmaceutical Company Limited, priority 2016, published 2019)
Structures can show the parent of a compound that is named as a salt.

These compounds were tested against T1, human mGluR7 (Homo sapiens, UniProt Q14831) (assay: mGluR7 assay: CRE-directed luciferase reporter gene assay, reduction of forskolin stimulated cAMP production). Details: stable CHO cell line expressing the CRE-luc reporter and human mGluR7 genes; decrease of forskolin stimulated luminescence; 10-point concentration-response, duplicate wells.
T1 construct: expressed in transfected cells
Type: cell-based
Procedure, shortened: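 Stable CHO cell line co-expressing human mGluR7 and a CRE-luciferase reporter; compounds preincubated 15 min at 37 °C, then forskolin added and incubated 5 h at 37 °C. 10-point half-log concentration-response in duplicate, normalised to forskolin-alone (max) and forskolin plus tool mGluR7 agonist (min) controls.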

T1 sequence (Q14831 35-915): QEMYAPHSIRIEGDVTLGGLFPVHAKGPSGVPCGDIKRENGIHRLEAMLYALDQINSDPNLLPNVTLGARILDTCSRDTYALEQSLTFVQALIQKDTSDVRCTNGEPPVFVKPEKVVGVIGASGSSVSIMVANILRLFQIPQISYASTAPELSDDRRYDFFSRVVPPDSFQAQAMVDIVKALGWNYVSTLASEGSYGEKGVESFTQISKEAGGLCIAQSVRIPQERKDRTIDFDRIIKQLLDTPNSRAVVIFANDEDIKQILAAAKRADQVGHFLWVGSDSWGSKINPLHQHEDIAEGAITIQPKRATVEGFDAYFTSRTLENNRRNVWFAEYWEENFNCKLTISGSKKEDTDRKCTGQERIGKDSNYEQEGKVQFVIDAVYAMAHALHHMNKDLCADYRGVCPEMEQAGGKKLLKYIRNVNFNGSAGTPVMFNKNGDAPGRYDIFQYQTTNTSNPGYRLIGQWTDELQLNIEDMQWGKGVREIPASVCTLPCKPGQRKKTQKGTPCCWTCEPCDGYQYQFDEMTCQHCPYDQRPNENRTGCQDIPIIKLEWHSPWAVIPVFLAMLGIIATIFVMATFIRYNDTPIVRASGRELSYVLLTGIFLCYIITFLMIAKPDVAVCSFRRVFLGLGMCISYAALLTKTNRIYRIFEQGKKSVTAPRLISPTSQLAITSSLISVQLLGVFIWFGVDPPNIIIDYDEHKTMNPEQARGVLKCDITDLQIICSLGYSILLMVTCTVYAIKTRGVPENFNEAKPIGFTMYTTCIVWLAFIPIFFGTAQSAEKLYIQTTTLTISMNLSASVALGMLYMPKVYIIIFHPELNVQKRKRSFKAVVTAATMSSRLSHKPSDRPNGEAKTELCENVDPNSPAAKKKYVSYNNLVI

Question: How did the EC50 turn out when `C[C@H](C(=O)N[C@H]1Cc2ccccc2[C@@H]1NCC(F)(F)F)c1ccc(F)cc1F` [Example 59, (2S)-2-(2,4-difluorophenyl)-N-[(1S,2S)-1-[(2,2,2-trifluoroethyl)amino]-2,3-dihydro-1H-inden-2-yl]propanamide] was run?
Answer: The EC50 was 7 nM.

Question: How did the EC50 turn out when `CN[C@H]1c2ccccc2C[C@@H]1NC(=O)[C@@H](C)c1ccc(F)cc1` [Example 64, (2S)-2-(4-fluorophenyl)-N-[(1S,2S)-1-(methylamino)-2,3-dihydro-1H-inden-2-yl]propanamide] was run?
Answer: Its EC50 is 45 nM.

Question: With `C[C@H](C(=O)N[C@H]1Cc2ccccc2[C@@H]1N(C)C)c1ccc(F)cc1` [Example 74, (2S)—N-(trans)-[1-(dimethylamino)-2,3-dihydro-1H-inden-2-yl]-2-(4-fluorophenyl)propanamide] as the compound, how does the EC50 read?
Answer: Its EC50 is 94 nM.

Question: With `CC(F)(C(=O)N[C@H]1Cc2ccccc2[C@@H]1N)c1ccc(F)cc1` (stereo partly drawn) [Example 75, N-[(1S,2S)-1-amino-2,3-dihydro-1H-inden-2-yl]-2-fluoro-2-(4-fluorophenyl)propanamide] as the compound, how does the EC50 read?
Answer: The EC50 was 320 nM.

Question: With `N[C@H]1c2ccccc2C[C@@H]1NC(=O)C1(c2ccccc2Cl)CC1` [Example 79, N-[(1S,2S)-1-amino-2,3-dihydro-1H-inden-2-yl]-1-(2-chlorophenyl)cyclopropane-1-carboxamide] as the compound, how does the EC50 read?
Answer: The EC50 was 440 nM.

Question: For `CC(=O)N[C@H]1c2ccccc2C[C@@H]1NC(=O)[C@@H](C)c1ccc(F)cc1F` [Example 80, (2S)-2-(2,4-difluorophenyl)-N-[(1S,2S)-1-acetamido-2,3-dihydro-1H-inden-2-yl]propanamide], which EC50 is on record?
Answer: The EC50 was 814 nM.

Question: With `COC1c2ccccc2C[C@@H]1NC(=O)[C@@H](NS(=O)(=O)c1c(C)noc1C)c1ccc(F)cc1` (stereo partly drawn) [Example 83, (2S)-2-(3,5-dimethyl-1,2-isoxazole-4-sulfonamido)-2-(4-fluorophenyl)-N-((trans)-1-methoxy-2,3-dihydro-1H-inden-2-yl)acetamide] as the compound, how does the EC50 read?
Answer: The EC50 was 26 nM.

Question: Which EC50 does the source give for `N[C@H]1c2ccccc2C[C@@H]1NC(=O)C(c1ccc(F)cc1)C1CC1` (stereo partly drawn) [Example 86, N-[(1S,2S)-1-amino-2,3-dihydro-1H-inden-2-yl]-2-cyclopropyl-2-(4-fluorophenyl)acetamide] here?
Answer: The EC50 was 721 nM.

Question: How did the EC50 turn out when `CC(C)(C)OC(=O)N[C@H]1c2ccccc2C[C@@H]1NC(=O)C(C)(C)c1ccc(F)cc1` [Example 87, tert-butyl N-[(1S,2S)-2-[2-(4-fluorophenyl)-2-methylpropanamido]-2,3-dihydro-1H-inden-1-yl]carbamate] was run?
Answer: The EC50 was 582 nM.

Question: How did the EC50 turn out when `CC(C)(C)OC(=O)N[C@H]1c2ccccc2C[C@@H]1NC(=O)C1(c2ccccc2)COC1` [Example 88, tert-butyl N-[(1S,2S)-2-(3-phenyloxetane-3-amido)-2,3-dihydro-1H-inden-1-yl]carbamate] was run?
Answer: The EC50 was 53 nM.

Question: How did the EC50 turn out when `C[C@H](C(=O)N[C@H]1Cc2ccccc2[C@@H]1NS(C)(=O)=O)c1ccc(F)cc1F` [Example 89, (2S)-2-(2,4-difluorophenyl)-N-[(1S,2S)-1-methanesulfonamido-2,3-dihydro-1H-inden-2-yl]propanamide] was run?
Answer: The EC50 was 1610 nM.

Question: With `C[C@H](C(=O)N[C@H]1Cc2ccccc2[C@@H]1NCC1CCC1)c1ccc(F)cc1F` [Example 90, (2S)—N-[(1S,2S)-1-[(cyclobutylmethyl)amino]-2,3-dihydro-1H-inden-2-yl]-2-(2,4-difluorophenyl)propanamide] as the compound, how does the EC50 read?
Answer: The EC50 was 10 nM.

Question: With `C[C@H](C(=O)N[C@H]1Cc2ccccc2[C@@H]1NC1CCC1)c1ccc(F)cc1F` [Example 91, (2S)—N-[(1S,2S)-1-(cyclobutylamino)-2,3-dihydro-1H-inden-2-yl]-2-(2,4-difluorophenyl)propanamide] as the compound, how does the EC50 read?
Answer: Its EC50 is 38 nM.

Question: `C[C@H](C(=O)N[C@H]1Cc2ccccc2[C@@H]1NCc1ncccc1F)c1ccc(F)cc1F` [Example 92, (2S)-2-(2,4-difluorophenyl)-N-[(1S,2S)-1-{[(3-fluoropyridin-2-yl)methyl]amino}-2,3-dihydro-1H-inden-2-yl]propanamide] was tested. Which EC50 did it give?
Answer: Its EC50 is 7 nM.

Question: How did the EC50 turn out when `CC(C)(C)OC(=O)N[C@H]1c2ccccc2C[C@@H]1NC(=O)C1(c2ccc(F)cc2)CCOCC1` [Example 94, tert-butyl N-[(1S,2S)-2-[4-(4-fluorophenyl)oxane-4-amido]-2,3-dihydro-1H-inden-1-yl]carbamate] was run?
Answer: The EC50 was 46 nM.

Question: How did the EC50 turn out when `CN[C@@H]1c2ccccc2C[C@H]1NC(=O)[C@@H](C)c1ccc(F)cc1` [Example 95, (2S)-2-(4-fluorophenyl)-N-[(1R,2R)-1-(methylamino)-2,3-dihydro-1H-inden-2-yl]propanamide] was run?
Answer: The EC50 was 9 nM.

Question: For `COC1c2ccccc2C[C@@H]1NC(=O)[C@@H](NC(=O)C1CCOCC1)c1ccc(F)cc1` (stereo partly drawn) [Example 98, (2S)-2-(4-fluorophenyl)-N-(trans)-(1-methoxy-2,3-dihydro-1H-inden-2-yl)-2-[(oxan-4-yl)formamido]acetamide], which EC50 is on record?
Answer: The EC50 was 4 nM.

Question: How did the EC50 turn out when `CC(C)(C(=O)N[C@H]1Cc2ccccc2[C@@H]1N)c1ccc(F)cc1` [Example 99, N-[(1S,2S)-1-amino-2,3-dihydro-1H-inden-2-yl]-2-(4-fluorophenyl)-2-methylpropanamide] was run?
Answer: The EC50 was 2190 nM.

Question: Which EC50 does the source give for `CC(C)(C)OC(=O)N[C@H]1c2ccccc2C[C@@H]1NC(=O)C(c1ccc(F)cc1F)N1CCC1` (stereo partly drawn) [Example 100, tert-butyl N-[(1S,2S)-2-[2-(azetidin-1-yl)-2-(2,4-difluorophenyl)acetamido]-2,3-dihydro-1H-inden-1-yl]carbamate] here?
Answer: Its EC50 is 27 nM.

Question: How did the EC50 turn out when `N[C@H]1c2ccccc2C[C@@H]1NC(=O)C(c1ccc(F)cc1F)N1CC(F)(F)C1` (stereo partly drawn) [Example 103, N-[(1S,2S)-1-amino-2,3-dihydro-1H-inden-2-yl]-2-(3,3-difluoroazetidin-1-yl)-2-(2,4-difluorophenyl)acetamide formate] was run?
Answer: The EC50 was 218 nM.

Question: For `COC1CN(C(C(=O)N[C@H]2Cc3ccccc3[C@@H]2NC(=O)OC(C)(C)C)c2ccc(F)cc2F)C1` (stereo partly drawn) [Example 104, tert-butyl N-[(1S,2S)-2-[2-(2,4-difluorophenyl)-2-(3-methoxyazetidin-1-yl)acetamido]-2,3-dihydro-1H-inden-1-yl]carbamate], which EC50 is on record?
Answer: The EC50 was 12 nM.

Question: For `N[C@H]1c2ccccc2C[C@@H]1NC(=O)C(c1ccc(F)cc1F)N1CC(F)C1` (stereo partly drawn) [Example 105, N-[(1S,2S)-1-amino-2,3-dihydro-1H-inden-2-yl]-2-(2,4-difluorophenyl)-2-(3-fluoroazetidin-1-yl)acetamide], which EC50 is on record?
Answer: Its EC50 is 146 nM.

Question: How did the EC50 turn out when `N[C@H]1c2ccccc2C[C@@H]1NC(=O)C(c1ccc(F)cc1F)N1CCC1` (stereo partly drawn) [Example 108, N-[(1S,2S)-1-amino-2,3-dihydro-1H-inden-2-yl]-2-(azetidin-1-yl)-2-(2,4-difluorophenyl)acetamide] was run?
Answer: Its EC50 is 190 nM.

Question: `COC1CN(C(C(=O)N[C@H]2Cc3ccccc3[C@@H]2N)c2ccc(F)cc2F)C1` (stereo partly drawn) [Example 111, N-[(1S,2S)-1-amino-2,3-dihydro-1H-inden-2-yl]-2-(2,4-difluorophenyl)-2-(3-methoxyazetidin-1-yl)acetamide] was tested. Which EC50 did it give?
Answer: Its EC50 is 135 nM.

Question: For `C[C@H](C(=O)N[C@@H]1Cc2ccccc2[C@H]1N1CC(F)C1)c1ccc(F)cc1` [Example 112, (2S)—N-[(1R,2R)-1-(3-fluoroazetidin-1-yl)-2,3-dihydro-1H-inden-2-yl]-2-(4-fluorophenyl)propanamide], which EC50 is on record?
Answer: The EC50 was 11 nM.

Question: Which EC50 does the source give for `C[C@H](C(=O)N[C@@H]1Cc2ccccc2[C@H]1S(C)(=O)=O)c1ccc(F)cc1` [Example 113, (2S)-2-(4-fluorophenyl)-N-[(1R,2R)-1-methanesulfonyl-2,3-dihydro-1H-inden-2-yl]propanamide] here?
Answer: The EC50 was 38 nM.

Question: Which EC50 does the source give for `C[C@H](C(=O)N[C@H]1Cc2ccccc2[C@@H]1N(Cc1ncco1)Cc1ncco1)c1ccc(F)cc1F` [Example 114, (2S)—N-[(1S,2S)-1-{bis[(1,3-oxazol-2-yl)methyl]amino}-2,3-dihydro-1H-inden-2-yl]-2-(2,4-difluorophenyl)propanamide] here?
Answer: The EC50 was 101 nM.

Question: For `N[C@H]1c2ccccc2C[C@@H]1NC(=O)C(c1ccc(F)cc1F)N1CC(OC(F)F)C1` (stereo partly drawn) [Example 119, N-[(1S,2S)-1-amino-2,3-dihydro-1H-inden-2-yl]-2-[3-(difluoromethoxy)azetidin-1-yl]-2-(2,4-difluorophenyl)acetamide], which EC50 is on record?
Answer: The EC50 was 63 nM.

Question: For `N[C@H]1c2ccccc2C[C@@H]1NC(=O)C1(c2ccccc2)CCNC1` (stereo partly drawn) [Example 120, N-[(1S,2S)-1-amino-2,3-dihydro-1H-inden-2-yl]-3-phenylpyrrolidine-3-carboxamide], which EC50 is on record?
Answer: Its EC50 is 3320 nM.

Question: For `CC(C)(C)OC(=O)N[C@H]1c2ccccc2C[C@@H]1NC(=O)C1(c2ccccc2)CNC(=O)C1` (stereo partly drawn) [Example 121, tert-butyl N-[(1S,2S)-2-(5-oxo-3-phenylpyrrolidine-3-amido)-2,3-dihydro-1H-1-inden-1-yl]carbamate], which EC50 is on record?
Answer: Its EC50 is 42 nM.

Question: Which EC50 does the source give for `N[C@H]1c2ccccc2C[C@@H]1NC(=O)C1(c2ccccc2)CNC(=O)C1` (stereo partly drawn) [Example 122, N-[(1S,2S)-1-amino-2,3-dihydro-1H-inden-2-yl]-5-oxo-3-phenylpyrrolidine-3-carboxamide] here?
Answer: The EC50 was 485 nM.

Question: Which EC50 does the source give for `CC(C)(C)OC(=O)N[C@H]1c2ccccc2C[C@@H]1NC(=O)C1(c2ccccc2)CC(=O)C1` [Example 123, tert-butyl N-[(1S,2S)-2-(3-oxo-1-phenylcyclobutaneamido)-2,3-dihydro-1H-inden-1-yl]carbamate] here?
Answer: Its EC50 is 68 nM.

Question: With `C[C@H](C(=O)N[C@H]1Cc2ccccc2[C@@H]1S(C)(=O)=O)c1ccc(F)cc1` [Example 132, (2S)-2-(4-fluorophenyl)-N-[(1S,2S)-1-methanesulfonyl-2,3-dihydro-1H-inden-2-yl]propanamide] as the compound, how does the EC50 read?
Answer: The EC50 was 5 nM.

Question: Which EC50 does the source give for `C[C@H](C(=O)N[C@H]1Cc2ccccc2[C@@H]1Nc1ncccn1)c1ccc(F)cc1F` [Example 133, (2S)-2-(2,4-difluorophenyl)-N-[(1S,2S)-1-[(pyrimidin-2-yl)amino]-2,3-dihydro-1H-inden-2-yl]propanamide] here?
Answer: Its EC50 is 178 nM.

Question: Which EC50 does the source give for `CCN[C@H]1c2ccccc2C[C@@H]1NC(=O)[C@@H](C)c1ccc(F)cc1` [Example 134, (2S)—N-[(1S,2S)-1-(ethylamino)-2,3-dihydro-1H-inden-2-yl]-2-(4-fluorophenyl)propanamide] here?
Answer: The EC50 was 86 nM.
